Experimental data taken from patent publication EP0496332A1, “Alpha-aminoquinolinoyl-[3]-penicillines, process for their preparation and their use as antibacterial agents” (ARZNEIMITTELWERK DRESDEN GmbH, priority 1991, dated 1992).
Converted amounts (≈) assume the structure as drawn.

How the values were obtained:
Experiment in all cases: In-vitro test, inhibitory concentration by dilution series
Format in all cases: cell-based
Proteus vulgaris OX 19 = details: OX19; III = Proteus vulgaris OX 19; step = concentration with no visible growth; read-out: Hemmkonzentration nach Verdünnung (Verdünnungsreihe) (converted)
Text: (§1) Die antibiotische Wirksamkeit erfindungsgemäßer Verbindungen wurde in der üblichen Weise durch Ermittlung der Hemmkonzentrationen nach Verdünnung ermittelt.
(§2) Die erhaltenen Ergebnisse sind in der nachstehenden Tabelle zusammengefaßt.

Escherichia coli = details: XII = Escherichia coli, Laborstämme; step = concentration with no visible growth; read-out: Hemmkonzentration nach Verdünnung (Verdünnungsreihe) (converted)
Text: as §1, §2

Enterokokken = details: XI = Enterokokken, Laborstämme; step = concentration with no visible growth; read-out: Hemmkonzentration nach Verdünnung (Verdünnungsreihe) (converted)
Text: as §1, §2

Staphylococcus aureus = details: IX = Staphylococcus aureus, Laborstämme; step = concentration with no visible growth; read-out: Hemmkonzentration nach Verdünnung (Verdünnungsreihe) (converted)
Text: as §1, §2

[1] = tested on: Salmonella gallinarium ATCC 9184; details: ATCC9184; VI = Salmonella gallinarium ATCC 9184; step = concentration with no visible growth; read-out: Hemmkonzentration nach Verdünnung (Verdünnungsreihe) (converted)
Text: as §1, §2

Enterobacter cloacae = details: XIII = Enterobacter cloacae, Laborstämme; step = concentration with no visible growth; read-out: Hemmkonzentration nach Verdünnung (Verdünnungsreihe) (converted)
Text: as §1, §2

[2] = tested on: Serratia marcescens SG 621; details: SG621; VIII = Serratia marcescens SG 621; step = concentration with no visible growth; read-out: Hemmkonzentration nach Verdünnung (Verdünnungsreihe) (converted)
Text: as §1, §2

[3] = tested on: Staphylococcus epidermidis; details: X = Staphylococcus epidermidis, Laborstämme; step = concentration with no visible growth; read-out: Hemmkonzentration nach Verdünnung (Verdünnungsreihe) (converted)
Text: as §1, §2

Bacillus subtilis SG 119 = details: SG119; I = Bacillus subtilis SG 119; step = concentration with no visible growth; read-out: Hemmkonzentration nach Verdünnung (Verdünnungsreihe) (converted)
Text: as §1, §2

Citrobacter freudii = details: XIV = Citrobacter freudii, Laborstämme; step = concentration with no visible growth; read-out: Hemmkonzentration nach Verdünnung (Verdünnungsreihe) (converted)
Text: as §1, §2

[4] = tested on: Staphylococcus aureus SG 511; details: SG511; II = Staphylococcus aureus SG 511; step = concentration with no visible growth; read-out: Hemmkonzentration nach Verdünnung (Verdünnungsreihe) (converted)
Text: as §1, §2

[5] = tested on: Pseudomonas aeruginosa SG 137; details: SG137; V = Pseudomonas aeruginosa SG 137; step = concentration with no visible growth; read-out: Hemmkonzentration nach Verdünnung (Verdünnungsreihe) (converted)
Text: as §1, §2

[6] = tested on: Pseudomonas aeruginosa NCTC 10701; details: NCTC10701; IV = Pseudomonas aeruginosa NCTC 10701; step = concentration with no visible growth; read-out: Hemmkonzentration nach Verdünnung (Verdünnungsreihe) (converted)
Text: as §1, §2

[7] = tested on: Klebsiella pneumoniae SG 117; details: SG117; VII = Klebsiella pneumoniae SG 117; step = concentration with no visible growth; read-out: Hemmkonzentration nach Verdünnung (Verdünnungsreihe) (converted)
Text: as §1, §2

Row | Compound | MIC (Proteus vulgaris OX 19) [µM] | MIC (Escherichia coli) [µM] | MIC (Enterokokken) [µM] | MIC (Staphylococcus aureus) [µM] | MIC [1] [µM] | MIC (Enterobacter cloacae) [µM] | MIC [2] [µM] | MIC [3] [µM] | MIC (Bacillus subtilis SG 119) [µM] | MIC (Citrobacter freudii) [µM] | MIC [4] [µM] | MIC [5] [µM] | MIC [6] [µM] | MIC [7] [µM]
1 | CCc1cc2c(OC(=O)OCC(C)C)c(C(=O)N[C@@H](C(=O)N[C@@H]3C(=O)N4[C@@H]3SC(C)(C)[C@@H]4C(=O)O)c3ccccc3)cnc2cc1COC(C)C [Beisp. 21, 6-[D-(-)-α-([4'-Isobutoxycarbonyloxy-6'-ethyl-7'-isopropoxymethylen-chinolinoyl-3']-carboxamido)-α-phenylacetamido]-penicillansäure-Natriumsalz] | 0.39 (≈ 0.281 µg/mL) | 1.56 (≈ 1.12 µg/mL) | 12.5 (≈ 9.01 µg/mL) | 12.5 (≈ 9.01 µg/mL) | 3.12 (≈ 2.25 µg/mL) | 6.25 (≈ 4.51 µg/mL) | 1.56 (≈ 1.12 µg/mL) | 6.25 (≈ 4.51 µg/mL) | 1.56 (≈ 1.12 µg/mL) | 6.25 (≈ 4.51 µg/mL) | 1.56 (≈ 1.12 µg/mL) | 6.25 (≈ 4.51 µg/mL) | 0.78 (≈ 0.562 µg/mL) | 0.78 (≈ 0.562 µg/mL)
2 | CC(C)COC(=O)Oc1c(C(=O)N[C@@H](C(=O)N[C@@H]2C(=O)N3[C@@H]2SC(C)(C)[C@@H]3C(=O)O)c2ccccc2)cnc2ccc(C(C)C)cc12 [Beisp. 11, 6-[D-(-)-α-([4'-Isobutoxycarbonyloxy-6'-isopropyl-chinolinoyl-3']-carboxamido)-α-phenylacetamido]-penicillansäure-Natriumsalz] | 0.78 (≈ 0.517 µg/mL) | 3.12 (≈ 2.07 µg/mL) | 12.5 (≈ 8.28 µg/mL) | 25 (≈ 16.6 µg/mL) | 3.12 (≈ 2.07 µg/mL) | 12.5 (≈ 8.28 µg/mL) | 3.12 (≈ 2.07 µg/mL) | 12.5 (≈ 8.28 µg/mL) | 3.12 (≈ 2.07 µg/mL) | 12.5 (≈ 8.28 µg/mL) | 3.12 (≈ 2.07 µg/mL) | 12.5 (≈ 8.28 µg/mL) | 1.56 (≈ 1.03 µg/mL) | 3.12 (≈ 2.07 µg/mL)
3 | CCc1cc2c(OC(=O)OCC(C)C)c(C(=O)N[C@@H](C(=O)N[C@@H]3C(=O)N4[C@@H]3SC(C)(C)[C@@H]4C(=O)O)c3ccccc3)cnc2cc1COC(C)CC (stereo partly drawn) [Beisp. 22, 6-[D-(-)-α-([4'-Isobutoxycarbonyloxy-6'-ethyl-7'-s-butoxymethylen-chinolinoyl-3']-carboxamido)-α-phenylacetamido]-penicillansäure-Natriumsalz] | 0.39 (≈ 0.287 µg/mL) | 1.56 (≈ 1.15 µg/mL) | 12.5 (≈ 9.19 µg/mL) | 25 (≈ 18.4 µg/mL) | 1.56 (≈ 1.15 µg/mL) | 6.25 (≈ 4.59 µg/mL) | 1.56 (≈ 1.15 µg/mL) | 12.5 (≈ 9.19 µg/mL) | 1.56 (≈ 1.15 µg/mL) | 3.12 (≈ 2.29 µg/mL) | 1.56 (≈ 1.15 µg/mL) | 12.5 (≈ 9.19 µg/mL) | 0.78 (≈ 0.573 µg/mL) | 0.78 (≈ 0.573 µg/mL)
4 | CCOC(=O)Oc1c(C(=O)N[C@@H](C(=O)N[C@@H]2C(=O)N3[C@@H]2SC(C)(C)[C@@H]3C(=O)O)c2ccccc2)cnc2cc(COc3ccc(C)cc3)c(CC)cc12 [Beisp. 3, 6-[D-(-)-α-([4'-Ethoxycarbonyloxy-6'-ethyl-7'-(4''-methyl)-phenoxymethylen-chinolinoyl-3']-carboxamido)-α-phenylacetamido]-penicillansäure-Natriumsalz] | 0.39 (≈ 0.289 µg/mL) | 1.56 (≈ 1.16 µg/mL) | 25 (≈ 18.5 µg/mL) | 50 (≈ 37 µg/mL) | 3.12 (≈ 2.31 µg/mL) | 6.25 (≈ 4.63 µg/mL) | 0.78 (≈ 0.578 µg/mL) | 12.5 (≈ 9.26 µg/mL) | 1.56 (≈ 1.16 µg/mL) | 6.25 (≈ 4.63 µg/mL) | 0.78 (≈ 0.578 µg/mL) | 12.5 (≈ 9.26 µg/mL) | 3.12 (≈ 2.31 µg/mL) | 0.78 (≈ 0.578 µg/mL)
5 | CCc1cc2c(OC(=O)OCC(C)C)c(C(=O)N[C@@H](C(=O)N[C@@H]3C(=O)N4[C@@H]3SC(C)(C)[C@@H]4C(=O)O)c3ccccc3)cnc2cc1COc1ccc(Cl)c(C)c1 [Beisp. 17, 6-[D-(-)-α-([4'-Isobutoxycarbonyloxy-6'-ethyl-7'-(3''-methyl-4''-chlor)-phenoxymethylen-chinolinoyl-3']-carboxamido)-α-phenylacetamido]-penicillansäure-Natriumsalz] | 0.78 (≈ 0.627 µg/mL) | 1.56 (≈ 1.25 µg/mL) | 25 (≈ 20.1 µg/mL) | 25 (≈ 20.1 µg/mL) | 3.12 (≈ 2.51 µg/mL) | 6.25 (≈ 5.02 µg/mL) | 1.56 (≈ 1.25 µg/mL) | 6.25 (≈ 5.02 µg/mL) | 1.56 (≈ 1.25 µg/mL) | 6.25 (≈ 5.02 µg/mL) | 1.56 (≈ 1.25 µg/mL) | 6.25 (≈ 5.02 µg/mL) | 6.25 (≈ 5.02 µg/mL) | 0.39 (≈ 0.313 µg/mL)
6 | CCCOCc1cc2ncc(C(=O)N[C@@H](C(=O)N[C@@H]3C(=O)N4[C@@H]3SC(C)(C)[C@@H]4C(=O)O)c3ccccc3)c(OC(=O)OCC)c2cc1CC [Beisp. 5, 6-[D-(-)-α-([4'-Ethoxycarbonyloxy-6'-ethyl-7'-n-propoxymethylen-chinolinoyl-3']-carboxamido)-α-phenylacetamido]-penicillansäure-Natriumsalz] | 0.78 (≈ 0.54 µg/mL) | 1.56 (≈ 1.08 µg/mL) | 6.25 (≈ 4.33 µg/mL) | 6.25 (≈ 4.33 µg/mL) | 3.12 (≈ 2.16 µg/mL) | 6.25 (≈ 4.33 µg/mL) | 1.56 (≈ 1.08 µg/mL) | 3.12 (≈ 2.16 µg/mL) | 0.78 (≈ 0.54 µg/mL) | 6.25 (≈ 4.33 µg/mL) | 1.56 (≈ 1.08 µg/mL) | 3.12 (≈ 2.16 µg/mL) | 0.78 (≈ 0.54 µg/mL) | 3.12 (≈ 2.16 µg/mL)
7 | CCc1cc2c(OC(=O)OCC(C)C)c(C(=O)N[C@@H](C(=O)N[C@@H]3C(=O)N4[C@@H]3SC(C)(C)[C@@H]4C(=O)O)c3ccccc3)cnc2cc1COC [Beisp. 18, 6-[D-(-)-α-([4'-Isobutoxycarbonyloxy-6'-ethyl-7'-methoxymethylen-chinolinoyl-3']-carboxamido)-α-phenylacetamido]-penicillansäure-Natriumsalz] | 0.39 (≈ 0.27 µg/mL) | 1.56 (≈ 1.08 µg/mL) | 25 (≈ 17.3 µg/mL) | 0.39 (≈ 0.27 µg/mL) | 3.12 (≈ 2.16 µg/mL) | 6.25 (≈ 4.33 µg/mL) | 3.12 (≈ 2.16 µg/mL) | 6.25 (≈ 4.33 µg/mL) | 1.56 (≈ 1.08 µg/mL) | 6.25 (≈ 4.33 µg/mL) | 1.56 (≈ 1.08 µg/mL) | 6.25 (≈ 4.33 µg/mL) | 0.78 (≈ 0.54 µg/mL) | 0.78 (≈ 0.54 µg/mL)
8 | CCc1cc2c(OC(=O)OCC(C)C)c(C(=O)N[C@@H](C(=O)N[C@@H]3C(=O)N4[C@@H]3SC(C)(C)[C@@H]4C(=O)O)c3ccccc3)cnc2cc1COc1ccc(C(C)=O)cc1 [Beisp. 15, 6-[D-(-)-α-([4'-Isobutoxycarbonyloxy-6'-ethyl-7'-(4''-acetyl)-phenoxymethylen-chinolinoyl-3']-carboxamido)-α-phenylacetamido]-penicillansäure-Natriumsalz] | 0.39 (≈ 0.311 µg/mL) | 1.56 (≈ 1.24 µg/mL) | 6.25 (≈ 4.98 µg/mL) | 6.25 (≈ 4.98 µg/mL) | 1.56 (≈ 1.24 µg/mL) | 3.12 (≈ 2.49 µg/mL) | 0.78 (≈ 0.622 µg/mL) | 3.12 (≈ 2.49 µg/mL) | 3.12 (≈ 2.49 µg/mL) | 3.12 (≈ 2.49 µg/mL) | 0.78 (≈ 0.622 µg/mL) | 3.12 (≈ 2.49 µg/mL) | 3.12 (≈ 2.49 µg/mL) | 0.78 (≈ 0.622 µg/mL)
